Data set [1] deals with PC-12. The data set is described as follows: Induction of neurite outgrowth in rat PC12 cells assessed as increase in neurite length at 10 uM incubated for 48 hrs by phase contrast microscopy. The data set is classed as functional, cell-based.
The test system of data set [2] is PC-12. Description: Induction of neurite outgrowth in rat PC12 cells assessed as increase in neurite length at 30 uM incubated for 48 hrs by phase contrast microscopy. The data set is classed as functional, cell-based.
The subject of data set [3] is PC-12. Description: Induction of neurite outgrowth in rat PC12 cells assessed as increase in neurite length at 1 uM incubated for 48 hrs by phase contrast microscopy. Type of data set: functional, cell-based.
For data set [4], the system named is PC-12. The data set is described as follows: Cytotoxicity against rat PC12 cells assessed as reduction in cell viability at >5 uM incubated for 48 hrs. Type of data set: cell-based. The note with it: pc-12, 48 h.
For data set [5], the system named is PC-12. Description: Cytotoxicity against rat PC12 cells assessed as reduction in cell viability at 10 uM incubated for 48 hrs. The data set is classed as cell-based. Conditions: pc-12, 48 h.
Data set [6] concerns PC-12. Description: Induction of neurite outgrowth in rat PC12 cells assessed as increase in neurite length incubated for 48 hrs by phase contrast microscopy. Type of data set: functional, cell-based.

Calls of active or inactive are those of the source. The calls are words filed in the database; no cut-off is given here.

Regarding `O=C(OCc1ccc(-c2ccccc2)cc1)c1cccc(O)c1O`, the outcome in the data set on PC-12 [1] was inactive.

Take `O=C(OCCCCCCCCCCc1ccccc1)c1cccc(O)c1O`: the result in the data set with PC-12 [2] was inactive.

As to `O=C(OCCc1ccccc1)c1cccc(O)c1O`, in the data set with PC-12 [2], the result was inactive.

Regarding `CCCCCCCCCCCCCCOC(=O)c1csc(N)n1`, in the data set with PC-12 [3], the result was inactive.

In the case of `CCCCCCCCCCCCCCOC(=O)c1c(O)c(=O)[nH]c2ccccc12`, in the data set on PC-12 [3], the result was Active. For the same molecule, the Activity entry is “Toxic” in the data set on PC-12 [4], “Toxic” with PC-12 [5] and “Dose-dependent effect” with PC-12 [6].

Regarding `O=C(OCCCc1ccccc1)c1cccc(O)c1O`, the outcome in the data set with PC-12 [2] was inactive.

In the case of `CCCCCCCCCCc1ccc(COC(=O)c2cccc(O)c2O)cc1`, the outcome in the data set on PC-12 [3] was Active.

In the case of `CCCCCCC/C=C/c1ccc(COC(=O)c2cccc(O)c2O)cc1`, the result with PC-12 [3] was Active.

Consider `O=C(Oc1ccccc1)c1cccc(O)c1O`, for which, in the data set on PC-12 [2], the result was Active.

Turning to `CCCCCCCCCCc1ccc(OC(=O)c2cccc(O)c2O)cc1`, the outcome in the data set on PC-12 [3] was Active. Moreover, the Activity result in the data set with PC-12 [4] was “Toxic”; with PC-12 [5] it was “Toxic”; in the data set with PC-12 [6] it was “Dose-dependent effect”.

In the case of `CCCCCc1ccc(-c2ccc(COC(=O)c3cccc(O)c3O)cc2)cc1`, the result in the data set on PC-12 [1] was inactive.

As to `O=C(OCc1ccccc1)c1cccc(O)c1O`, the result with PC-12 [2] was Active.

With `CCCCCCCCCCCCCCOC(=O)c1ccn[nH]1`, the result with PC-12 [3] was inactive.

Consider `CCCCCCc1ccc(-c2ccc(OC(=O)c3cccc(O)c3O)cc2)cc1`, for which the result with PC-12 [1] was inactive.

Turning to `CCCCCCCCCCCCCCOC(=O)c1cccc2nc[nH]c12`, the result in the data set with PC-12 [3] was inactive.

With `CCCCCCCCCc1ccc(COC(=O)c2cccc(O)c2O)cc1`, the outcome in the data set with PC-12 [3] was Active. Besides, the Activity entry was “Toxic” with PC-12 [4], “Toxic” with PC-12 [5] and “Dose-dependent effect” in the data set on PC-12 [6].

For `CCCCCCCCCCCCCCOC(=O)c1cccc(O)c1O`, the result in the data set on PC-12 [3] was Active. For the same molecule, the Activity result in the data set on PC-12 [4] and in the data set with PC-12 [5] was “Toxic” each time.

On to `O=C(Oc1ccc(-c2ccccc2)cc1)c1cccc(O)c1O`, for which the outcome with PC-12 [1] was inactive.

In the case of `O=C(OCCCCc1ccccc1)c1cccc(O)c1O`, in the data set with PC-12 [2], the outcome was inactive.

For `CCCCCCCC/C=C/c1ccc(COC(=O)c2cccc(O)c2O)cc1`, in the data set with PC-12 [3], the result was Active.

The record behind these values is ChEMBL document CHEMBL4359927, “Structural optimization and neurotrophic activity evaluation of neurotrophic gentiside derivatives” (Bioorg Med Chem Lett, 2019).
